Measurements taken from patent publication US20240148000A1, “METHOD FOR CONTROLLING HARMFUL ARTHROPODS OR HARMFUL NEMATODES USING ZOANTHAMINE” (SUMITOMO CHEMICAL COMPANY, LIMITED, priority 2021, published 2024).

What was measured:
[1] = system: cat flea (Ctenocephalides felis); assay: Test Method 11: coated container contact test, cat flea adults; assay type: in vivo; details: 20 mg/m^2 coated on inner face of container, after 2 days
Procedure: (§1) Next, Test Examples are used to show efficacy of the Present compounds on controlling harmful arthropods and harmful nematodes. The following Test Examples were carried out at 25° C. Also, the “untreated group” represents a group where the similar treatment procedure to that of the treated group except not using the test compound is done.
(§2) The test compound is dissolved into acetone containing a surfactant, then the solution is poured into a 20 mL container, the solution is coated uniformly on the inner face of the container so that the test compound will be 20 mg/m^2 and the surfactant will be 40 mg/m^2, and the container is then dried.
Ten (10) cat flea (Ctenocephalides felis) adults are released into the container, and the container is then covered with lid. After the prescribed time, the state of the cat flea is examined, and the mortality is calculated by the following equation.
(§3) Mortality (%)=(Number of dead insects/Number of tested insects)×100
The test was conducted by making the prescribed time 2 days and using each of the below-mentioned Present compounds as a test compound.

[2] = system: southern root-knot nematodes (Meloidogyne incognita); assay: Test Example 12: tomato seedlings in soil contaminated with southern root-knot nematodes; assay type: in vivo; details: 60 mg in 60 mL: 20 mL mixed with 400 mL contaminated soil, 40 mL irrigated; tomato roots after 28 days; untreated group 5
Procedure: as §1
The Present compound 1 or 2 (60 mg) was dissolved into acetone (600 μL) containing 5% of Tween 20, and then thereto was added water to prepare a solution (60 mL).
The solution (20 mL) and soil (400 mL) contaminated with southern root-knot nematodes (Meloidogyne incognita) were mixed, and roots of healthy tomato (Lycopersicon esculentum) seedlings (third to fourth leaf stage) were transferred to the soil. Shortly after the transfer, the remaining solution (40 mL) was irrigated to the soil of the tomato seedlings.
After 28 days, the roots were pulled out of the soil, washed with water, and the degree of root damage (degree of root-knot) was investigated according to the Zeck's root-knot index (Zeck, W. M. (1971): Pflanzenschutz-Nachichten. Bayer AG, 24, 141-144.).
• 0: No root-knot is observed. • 1: Several small root-knots can be recognized by careful observation. • 2: Several small root-knots similar to 1 can be easily identified. • 3: There are many small root-knots, and some of which are fused. […]

[3] = system: common house mosquito (Culex pipiens pallens) female adults; assay: Test Method 10: coated container contact test, common house mosquito female adults; assay type: in vivo; details: 10 mg/m^2 coated on inner face of container, after 1 day
Procedure: as §1
as §2, with “be 10” for “be 20”
Five (5) common house mosquito (Culex pipiens pallens) female adults are released into the container, and the container is then covered with lid. After the prescribed time, the state of the common house mosquito is examined, and the mortality is calculated by the following equation.
as §3
The test was conducted by making the prescribed time 1 day and using each of the below-mentioned Present compounds as a test compound.

[4] = system: cotton worm (Spodoptera litura); assay: Test Method 1: foliar spray on cabbage seedling, cotton worm larvae; assay type: in vivo; details: 200 ppm, sprayed 20 mL/seedling on cabbage, third-instar larvae, after 6 days, Formulation Example 5, 25° C.
Procedure: as §1
(§4) Test compound is made to a formulation according to a similar method to that described in the Formulation Example 5, and thereto is added water containing 0.03 v/v % of Shindain (registered trademark) to prepare a diluted solution containing a prescribed concentration of the test compound.
(§5) Cabbage (Brassicae oleracea) seedling (on the developmental stage of the third to fourth true leaf) is planted in a container, and the diluted solutions are sprayed to the seedling at a ratio of 20 mL/seedling. Thereafter, 10 of third-instar larvae of cotton worm (Spodoptera litura) are released. After 6 days, the number of the surviving insects is counted, and the mortality of insects is calculated by the following equation.
(§6) Mortality (%)=(1−Number of surviving insects/10)×100
The test was conducted by making the prescribed concentration 200 ppm and using each of the below-mentioned Present compounds as a test compound according to the Test Method 1.

[5] = system: brown planthoppers (Nilaparvata lugens); assay: Test Method 5: foliar spray on rice seedling, brown planthoppers; assay type: in vivo; details: 200 ppm, sprayed 10 mL/seedling on rice, third-instar larvae, after 6 days
Procedure: as §1
The test compound is made to a formulation according to a similar method to that described in the Formulation Example 5, and thereto is added water containing 0.03 v/v % of Shindain (registered trademark) to prepare a diluted solution containing a prescribed concentration of the test compound.
Rice (Oryza sativa) seedling (on the developmental stage of the second true leaf) is planted in a container, and the diluted solutions are sprayed to the seedling at a ratio of 10 mL/seedling. Thereafter, 20 of third-instar larvae of brown planthoppers (Nilaparvata lugens) are released onto the rice seedling. After 6 days, the number of the surviving insects is examined and the mortality of insects is calculated by the following equation.
Mortality={1−Number of surviving insects/20}×100
The test was conducted by making the prescribed concentration 200 ppm and using each of the below-mentioned Present compounds as a test compound according to the Test Method 5.

[6] = system: diamondback moth (Plutella xylostella); assay: Test Method 2: foliar spray on cabbage seedling, diamondback moth larvae; assay type: in vivo; details: third-instar larvae, after 6 days
Procedure: as §1, §4
as §5, with “diamondback moth (Plutella xylostella)” for “cotton worm (Spodoptera litura)”, “released to the container.” for “released.”
as §6
The test was conducted by making the prescribed concentration 200 ppm and using each of the below-mentioned Present compounds as a test compound according to the Test Method 2.
The test was conducted by making the prescribed concentration 500 ppm and using the below-mentioned Present compound as a test compound according to the Test Method 2 except for formulating it according to the Formulation Example 1 instead of the Formulation Example 5.

[7] = system: common house mosquito (Culex pipiens pallens) last instar larvae; assay: Test Method 9: common house mosquito larvae in diluted solution; assay type: in vivo; details: 3.5 ppm in water, Formulation Example 1, last instar larvae, after 1 day
Procedure: as §1
The test compound is made to a formulation according to a similar method to that described in the Formulation Example 1, and thereto is added water to prepare a diluted solution containing a prescribed concentration of the test compound.
Into the diluted solution, 30 last instar larvae of common house mosquito (Culex pipiens pallens) are released, and after 1 day, the state of the common house mosquito larvae is examined, and the mortality of insects is calculated by the following equation.
as §3
The test was conducted by making the prescribed concentration 3.5 ppm and using each of the below-mentioned Present compounds as a test compound according to the Test Method 9.

[8] = system: P388 mouse leukemia cells; details: Nonpatent Document 2; cited from earlier work
[9] = 200 ppm, sprayed 20 mL/seedling on cabbage, Formulation Example 5, 25° C.

| Compound | mortality [1] [%] | root-knot index (Zeck's root-knot index) [2] | mortality [3] [%] | mortality [4] [%] | mortality [5] [%] | mortality [6, 9] [%] | mortality [7] [%] | growth of P388 mouse leukemia cells [8] | mortality ([6]; 500 ppm, Formulation Example 1 instead of 5, sprayed 20 mL/seedling on cabbage) [%] |
| --- | --- | --- | --- | --- | --- | --- | --- | --- | --- |
| CC1=CC(=O)[C@H]2CC(=O)[C@H]3[C@@](C)(C[C@@]45OC(=O)C[C@]3(C)[C@]4(C)CC[C@]34C[C@@H](C)C[C@H](CN35)O4)[C@@H]2C1 [compound 1] | 100 | 2 (Several small root-knots similar to 1 can be easily identified.) | 100 | 100 | 100 | 100 | 100 |  |  |
| CC1=CC(=O)[C@H]2CC(=O)[C@H]3[C@@](C)(C(=O)[C@@]45OC(=O)C[C@]3(C)[C@]4(C)CC[C@]34C[C@@H](C)C[C@H](CN35)O4)[C@@H]2C1 [compound 3] |  |  |  |  |  |  | 100 |  |  |
| CC1=CC(=O)[C@@H]2[C@@H](C1)[C@]1(C)C[C@@]34OC(=O)C[C@@](C)([C@H]1C(=O)[C@@H]2C)[C@]3(C)CC[C@]12C[C@@H](C)C[C@H](CN14)O2 [compound 2] | 100 | 2 (Several small root-knots similar to 1 can be easily identified.) | 100 | 100 | 100 | 100 | 100 |  |  |
| norzoanthamine [Present compound 1] |  |  |  |  |  |  |  | inhibits the growth |  |
| CC1=CC(=O)[C@@H]2[C@@H](C1)[C@]1(C)C(=O)[C@@]34OC(=O)C[C@@](C)([C@H]1C(=O)[C@@H]2C)[C@]3(C)CC[C@]12C[C@@H](C)C[C@H](CN14)O2 [compound 4] |  |  |  |  |  |  | 100 |  | 80 |
| CC1=CC(=O)[C@@H]2[C@@H](C1)[C@]1(C)C[C@@]34OC(=O)C[C@@](C)([C@H]1C(=O)[C@@H]2C)[C@]3(C)CC[C@]12C[C@@H](C)C[C@H](CN14)O2.Cl [compound 6] |  |  | 100 | 100 | 100 | 100 |  |  |  |
| CC1=CC(=O)[C@H]2CC(=O)[C@H]3[C@@](C)(C[C@@]45OC(=O)C[C@]3(C)[C@]4(C)CC[C@]34C[C@@H](C)C[C@H](CN35)O4)[C@@H]2C1.Cl [compound 5] |  |  | 100 | 100 | 100 | 100 |  |  |  |
